Laboratory results taken from PMC12592502, “Unraveling the mechanisms behind the enhanced efficacy of β-lactam-based sideromycins” (Communications Biology, 2025).
≈ marks a conversion by molar mass, not a printed value. Like-named read-outs stand apart in the source and are kept apart here.

Key:
PBP2 = biological target: T1, PBP2 (Escherichia coli, UniProt P0AD65); assay: Membrane PBP binding assay, competition with Bocillin FL; parameters: species or system E. coli MC4100
T1 construct: using bacterial membranes as the source of PBPs; endogenous in cells; host or cells: E. coli MC4100 membrane preparation
Method: (§1) Membrane extracts containing PBPs were obtained as described above. Briefly, all species were grown in 1 L of TSB until the OD600 reached 0.9. The washed pellet was incubated with lysozyme (400 μg/mL), DNase (10 μg/mL) RNase(10 μg/mL) and anti-protease cocktail (200 mg/20 mL). Lysis was done with a French press (20,000 psi) and membrane protein were pelleted by ultracentrifugation steps (100,000 × g). The pellet was suspended in a minimal volume (300–500 μL) of KP 0.05 M buffer at pH 7. The protein concentration in the membrane preparations was determined with the Micro BCA TM Protein Assay Kit (Thermo Fisher Scientific, Rockford, IL) using bovine serum albumin as a standard.
(§2) The PBP binding assay was done as described previously[36],[56],[57]. For each antibiotic concentration tested, a quantity of 25 to 40 μg of membrane preparation was used as the source of PBPs, depending on the species. For the purified PaPBP3, 150 ng was used in the assay. First, increasing concentrations of the test antibiotic was added to the membrane or purified PaPBP3 preparations and incubated for 10 min at 30 °C. The reporter molecule Bocillin FL was then added at 12.5 μM for the membrane PBPs preparations and at 500 nM for the pure PaPBP3 samples for an additional 20 min at 30 °C. All reactions were stopped with the addition of the Laemmli-loading buffer (Bio-Rad) containing fresh β-mercaptoethanol (Sigma). All reactions were then heated at 100°C for 3 min before migration on SDS-polyacrylamide discontinuous gel system (7.5% stacking and 10% separating). Control samples without Bocillin FL were also included to highlight autofluorescent proteins that are not PBPs.
(§3) To be able to visualize labeled PBPs after electrophoresis, gels were rinsed in water and fixed in a solution of 50% methanol and 7% acetic acid for 30 min. The fluorescent images of gels were obtained with the Typhoon FLA 9500 instrument (GE-Healthcare Bio-Sciences Inc., Baie-d’Urfé, QC, CA) using a 473 nm excitation wavelength. To obtain quantifiable data, the software Quantity One 1D analysis was used (version 4.6.6; Bio-Rad Laboratories, Richmond, CA). The volume (intensity × constant area) of each PBP was measured. […] All IC50 data were obtained from at least two independent PBP binding assays using two different sets of compound concentrations using a linear regression. The PBP profiles were confirmed, and the PBP numbering were determined using published data and individual molecular weights. […] For example, amdinocillin (Sigma) was used for PBP2 identification. […] The IC50 for PBP 2 of P. aeruginosa was measured by including the SDS-PAGE comigrating autofluorescent protein in the background, as done previously.

PBP3 = biological target: T2, PBP3 (Escherichia coli, UniProt P0AD68); assay: as above; parameters: species or system E. coli MC4100; conditions: for IC50 value ratio βL/SID-βL, PBP3: E. coli MC4100
T2 construct: using bacterial membranes as the source of PBPs; endogenous in cells; host or cells: E. coli MC4100 membrane preparation
Method: as §1, §2, §3

PBP4 = biological target: T3, PBP4 (Escherichia coli, UniProt P24228); assay: as above; parameters: species or system E. coli MC4100
T3 construct: using bacterial membranes as the source of PBPs; endogenous in cells; host or cells: E. coli MC4100 membrane preparation
Method: as §1, §2, §3

PBP1a/1b [1] = assay: as above; parameters: species or system E. coli MC4100; conditions: for IC50: E. coli MC4100 membranes, 12.5 μM Bocillin FL
Method: as §1, §2, §3

E. coli ΔcirA = assay: MIC, Keio mutant; format: cell-based, Escherichia coli
Method: (§4) All bacterial strains (see description and sources Table S1) were stored at −80 °C, and grown on tryptone soya agar (TSA) at 35 °C. The iron-deprived (ID)-MHBCA (cation-adjusted Muller-Hinton Broth, Becton Dickinson, Mississauga, ON, Canada) medium was prepared as reported by refs. [21],[50]. Briefly, MHBCA was treated with 10% Chelex® 50-100 mesh (Sigma) and stirred for 6 h at room temperature. The resin was removed by filtration. Divalent Ca^2+ (CaCl2), Mg^2+ (MgCl2), and Zn^2+(ZnSO4), were then added in the iron-depleted medium at 22, 12, and 1 μg/ml respectively. Finally, the pH was adjusted to 7.3, and the medium was sterilized with a 0.2-μm filter. Regular MHBCA (i.e., not treated with Chelex®) was used to compare the inhibitory activity of conjugates in iron-sufficient conditions.
(§5) Minimal inhibitory concentrations (MICs) were performed using a broth microdilution technique according to the Clinical and Laboratory Standards Institute (CLSI) guidelines. MICs were determined in MHBCA and in ID-MHBCA. To check the impact of β-lactamases, MICs in the presence of a β-lactamase inhibitor were also determined. The inhibitor was homogenized at 2X the final concentration and added to the bacterial inoculum just before distributing cells into the wells containing the drug dilutions. The final concentration of each inhibitor was 4 μg/mL for clavulanic acid (tested against K. pneumoniae) and 200 μg/mL for 3-aminophenylboronic acid (tested against P. aeruginosa and A. baumannii).

E. coli Δfiu = assay: MIC, Keio mutant; format: cell-based, Escherichia coli
Method: as §4, §5

E. coli ΔfhuA = assay: MIC, Keio mutant; format: cell-based, Escherichia coli
Method: as §4, §5

E. coli lptD4213 = assay: MIC, hyperpermeable mutant; format: cell-based, Escherichia coli
Method: as §4, with “conditions. The resin used for Chelex treatment was always fresh and had never been regenerated, ensuring consistent iron removal.” for “conditions.”
as §5

PBP1a/1b [2] = assay: Membrane PBP binding assay, competition with Bocillin FL; conditions: K. pneumoniae ATCC 13883 membranes
Method: as §1, §2, §3

[3] = E. coli MC4100 membranes, read-out: IC50 PBP2
[4] = E. coli MC4100 membranes, read-out: IC50 PBP3
[5] = E. coli MC4100 membranes, read-out: IC50 PBP4
[6] = Escherichia coli, LPTD4213, lptD4213, ID-MHBCA (−)
[7] = Escherichia coli, LPTD4213, lptD4213, MHBCA (+)

Compound	IC50 (PBP2; [3]) [µM]	IC50 (PBP3; [4]) [µM]	IC50 (PBP4; [5]) [µM]	IC50 (PBP1a/1b [1]) [µM]	MIC (E. coli ΔcirA; Escherichia coli, ID-MHBCA) [µM]	MIC (E. coli Δfiu; Escherichia coli, ID-MHBCA) [µM]	MIC (E. coli ΔfhuA; Escherichia coli, ID-MHBCA) [µM]	MIC (E. coli lptD4213; [6]) [µM]	MIC (E. coli lptD4213; [7]) [µM]	MIC (E. coli lptD4213; lptD4213, MHBCA (+)) [µM]	IC50 (PBP1a/1b [2]) [µM]	MIC (E. coli ΔcirA; Escherichia coli, MHBCA) [µM]	MIC (E. coli Δfiu; Escherichia coli, MHBCA) [µM]	MIC (E. coli Δfiu; MHBCA) [µM]	IC50 value ratio βL/SID-βL, PBP3 (PBP3)	MIC (E. coli ΔfhuA; Escherichia coli, MHBCA) [µM]	MIC (E. coli ΔfhuA; MHBCA) [µM]	MIC (E. coli ΔcirA; MHBCA) [µM]	other results
CC1(C)S[C@@H]2[C@H](NC(=O)[C@H](N)c3ccccc3)C(=O)N2[C@H]1C(=O)O [AMP, ampicillin, reference compound]	11.4 ± 2.4	1.92 ± 0.94	8.3 ± 0.8	7.22 ± 0.07	25 (≈ 8.74 µg/mL)	25 (≈ 8.74 µg/mL)	25 (≈ 8.74 µg/mL)	0.4 (≈ 0.14 µg/mL)	0.4 (≈ 0.14 µg/mL)	0.4 (≈ 0.14 µg/mL)	8 ± 1	–	–	–	–	–	–	–	–
CC1(C)SC2C(NC(=O)C(NC(=O)CN(CCCCNC(=O)c3cccc(O)c3O)C(=O)c3cccc(O)c3O)c3ccccc3)C(=O)N2C1C(=O)O (stereo not shown) [BAMP, bis-catechol (azotochelin)-ampicillin]	2.26 ± 0.57	0.091 ± 0.007	> 50	2.4 ± 0.54	0.2 to 13 (≈ 0.15 to 9.75 µg/mL)	0.024 (≈ 0.018 µg/mL)	0.1 (≈ 0.075 µg/mL)	0.024 (≈ 0.018 µg/mL)	0.05 (≈ 0.0375 µg/mL)	–	4.24 ± 0.07	13 (≈ 9.75 µg/mL)	0.1 to 0.4 (≈ 0.075 to 0.3 µg/mL)	0.2 (≈ 0.15 µg/mL)	–	–	–	–	–
O=C(CN(CCCCNC(=O)c1cccc(O)c1O)C(=O)c1cccc(O)c1O)NC(C(=O)NC1C(=O)N2C(C(=O)O)=C(Cl)CCC12)c1ccccc1 (stereo not shown) [BLOR, bis-catechol (azotochelin)-loracarbef]	> 50	0.075 ± 0.011	8.3 ± 0.5	0.55 ± 0.02	0.2 (≈ 0.15 µg/mL)	0.024 (≈ 0.018 µg/mL)	0.024 (≈ 0.018 µg/mL)	0.006 (≈ 0.0045 µg/mL)	0.006 (≈ 0.0045 µg/mL)	–	0.43 ± 0.17	13 (≈ 9.75 µg/mL)	0.1 to 0.4 (≈ 0.075 to 0.3 µg/mL)	0.1 (≈ 0.075 µg/mL)	199	0.1 to 0.4 (≈ 0.075 to 0.3 µg/mL)	0.2 (≈ 0.15 µg/mL)	–	–
N[C@@H](C(=O)N[C@@H]1C(=O)N2C(C(=O)O)=C(Cl)CS[C@H]12)c1ccccc1 [CEF, cefaclor, reference compound]	–	–	–	34 ± 2	25 (≈ 9.2 µg/mL)	13 (≈ 4.78 µg/mL)	13 (≈ 4.78 µg/mL)	3.1 (≈ 1.14 µg/mL)	3.1 (≈ 1.14 µg/mL)	–	7.9 ± 1.5	13 (≈ 4.78 µg/mL)	13 (≈ 4.78 µg/mL)	–	–	13 (≈ 4.78 µg/mL)	–	–	IC50 (PBP2): > 50 µM; IC50 (PBP3): 15.4 ± 0.9 µM; IC50 (PBP4): 40.2 ± 8.6 µM
N[C@@H](C(=O)N[C@@H]1C(=O)N2C(C(=O)O)=C(Cl)CC[C@H]12)c1ccccc1 [LOR, loracarbef, reference compound]	> 50	14.9 ± 4.3	31.6 ± 9	42.5 ± 11.8	–	–	–	–	–	1.6 (≈ 0.56 µg/mL)	4.5 ± 2.1	–	–	6.3 (≈ 2.2 µg/mL)	–	–	6.3 (≈ 2.2 µg/mL)	13 (≈ 4.55 µg/mL)	MIC (E. coli ΔcirA; ID-MHBCA): 13 µM (≈ 4.55 µg/mL); MIC (E. coli Δfiu; ID-MHBCA): 6.3 µM (≈ 2.2 µg/mL); MIC (E. coli ΔfhuA; ID-MHBCA): 6.3 µM (≈ 2.2 µg/mL); MIC (E. coli lptD4213; lptD4213, ID-MHBCA (−)): 1.6 µM (≈ 0.56 µg/mL)
O=C(CCC(=O)N(CCCCNC(=O)c1cccc(O)c1O)CCCNC(=O)c1cccc(O)c1O)NCCCCCN(O)C(=O)CCCC(=O)NC(C(=O)NC1C(=O)N2C(C(=O)O)=C(Cl)CSC12)c1ccccc1 (stereo not shown) [MCEF, mixed ligand bis-catechol-mono-hydroxamate-cefaclor]	–	–	–	0.15 ± 0.01	> 200	> 200	> 200	1.6 (≈ 1.73 µg/mL)	1.6 (≈ 1.73 µg/mL)	–	0.35 ± 0.02	> 200	100 (≈ 108 µg/mL)	–	49	13 (≈ 14.1 µg/mL)	–	>200	IC50 (PBP2; read-out: IC50 PBP2, E. coli MC4100 membranes): 29.3 ± 2.3 µM; IC50 (PBP3; read-out: IC50 PBP3, E. coli MC4100 membranes): 0.32 ± 0.01 µM; IC50 (PBP4; read-out: IC50 PBP4, E. coli MC4100 membranes): 8.6 ± 1.3 µM; IC50 value ratio βL/SID-βL, PBP1a/1b (PBP1a/1b [1]; E. coli MC4100): 227
